Measurements taken from ChEMBL document CHEMBL1155676, “Isolation and biochemical characterization of a new topoisomerase I inhibitor from Ocotea leucoxylon” (J Nat Prod, 2000).
Each block holds one compound with its values, some of them ahead of it. The source made the active and inactive calls. The calls are words filed in the database; no cut-off is given here.

Experiments:
Saccharomyces cerevisiae [1] = assay: Growth inhibition of Saccharomyces cerevisiae RS322 after 48 hrs by XTT assay; type: functional
B16-F10 = assay: Cytotoxicity against mouse B16F10 cells upto 30 uM; type: functional, cell-based
COLO 205 = assay: Cytotoxicity against human COLO205 cells upto 30 uM; type: functional, cell-based
[2] = molecular target: T1, DNA topoisomerase 1 (Homo sapiens) (UniProt P11387); assay: Inhibition of human recombinant DNA topoisomerase 1-mediated pBR322 DNA relaxation activity at 20 to 200 uM after 30 mins by gel electrophoresis
T1 sequence (whole entry): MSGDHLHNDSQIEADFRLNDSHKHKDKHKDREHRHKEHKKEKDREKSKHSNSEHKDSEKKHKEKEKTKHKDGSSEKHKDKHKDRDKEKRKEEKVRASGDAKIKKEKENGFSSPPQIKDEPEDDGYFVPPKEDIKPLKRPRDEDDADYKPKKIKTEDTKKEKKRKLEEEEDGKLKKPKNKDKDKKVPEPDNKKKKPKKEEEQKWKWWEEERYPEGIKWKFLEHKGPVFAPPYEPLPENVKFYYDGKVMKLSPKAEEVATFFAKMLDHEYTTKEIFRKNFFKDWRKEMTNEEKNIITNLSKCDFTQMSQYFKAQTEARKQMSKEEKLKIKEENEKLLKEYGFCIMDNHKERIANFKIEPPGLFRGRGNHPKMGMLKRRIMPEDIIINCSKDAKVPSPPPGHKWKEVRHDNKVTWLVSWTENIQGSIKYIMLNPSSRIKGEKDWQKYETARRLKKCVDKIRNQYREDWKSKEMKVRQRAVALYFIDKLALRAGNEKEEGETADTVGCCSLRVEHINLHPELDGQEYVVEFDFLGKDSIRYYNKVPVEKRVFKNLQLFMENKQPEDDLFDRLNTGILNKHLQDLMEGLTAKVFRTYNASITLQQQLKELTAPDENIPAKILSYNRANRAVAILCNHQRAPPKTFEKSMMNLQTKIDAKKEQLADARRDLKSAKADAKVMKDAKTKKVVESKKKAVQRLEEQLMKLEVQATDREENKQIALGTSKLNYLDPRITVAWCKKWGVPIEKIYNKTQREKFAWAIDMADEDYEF

P388 [3] = assay: Cytotoxicity against camptothecin-resistant mouse P388 cells by soft-agar colony-formation assay; type: functional, cell-based
Saccharomyces cerevisiae [4] = assay: Growth inhibition of Saccharomyces cerevisiae RS321 after 48 hrs by XTT assay; type: functional
[5] = molecular target: T1, DNA topoisomerase 1 (Homo sapiens); assay: Induction of human recombinant topoisomerase 1-mediated pBR322 plasmid DNA cleavage assessed as increase in nicked form 2 at 100 uM after 60 mins
P388 [6] = assay: Cytotoxicity against mouse P388 cells by soft-agar colony-formation assay; type: functional, cell-based
Mus musculus = species on record: Mus musculus; assay: Cytotoxicity against mouse lung carcinoma cells upto 30 uM; type: functional, cell-based
Saccharomyces cerevisiae [7] = assay: Growth inhibition of Saccharomyces cerevisiae RJ03 after 48 hrs by XTT assay; type: functional
Bos taurus = species on record: Bos taurus; assay: Inhibition of calf thymus DNA topoisomerase 1-mediated supercoiled pSP64 plasmid DNA relaxation at 20 uM

Activity [2]: inactive
Activity [5]: 29%
SMILES: COc1cc2c(cc1OC)-c1c3c(cc4ccnc(c14)C2=O)OCO3 [DICENTRINONE]
IC12 (Saccharomyces cerevisiae [1]): 49 µg/mL
Activity (B16-F10): Not toxic
Activity (COLO 205): Not toxic
IC50 (P388 [3]): 100 µM
IC12 (Saccharomyces cerevisiae [4]): > 2000 µg/mL
IC50 (P388 [6]): 100 µM
Activity (Mus musculus): Not toxic
IC12 (Saccharomyces cerevisiae [7]): > 2000 µg/mL

SMILES: COc1cc2c(cc1OC)-c1c3c(cc4c1[C@H](C2)N(C)CC4)OCO3
Activity (Saccharomyces cerevisiae [1]): inactive
Activity (Saccharomyces cerevisiae [4]): inactive
Activity (Saccharomyces cerevisiae [7]): inactive

Activity (Bos taurus): Active
SMILES: COc1cc2c[n+](C)c3c4cc5c(cc4ccc3c2cc1OC)OCO5
